{"source": "patent US9820996B2", "about": "“Preparation method for antithyroid ointment for external application” (priority 2014, dated 2017)", "system": "hyperthyroidism patients", "assay": "Typical cases of clinical treatment (case reports)", "type": "in vivo, human", "details": "propylthiouracil and methimazole taken successively", "from_the_text": "The present example includes following typical cases of clinical treatment.", "note": "“Also recorded” adds a separate entry of the source.", "data": [{"smiles": "Cn1cc[nH]c1=S", "note": "[methimazole]", "values": [{"measurement": "adverse reaction that led to discontinuing oral treatment (patient history)", "result": "severe drug-induced liver damage; also recorded: severe neutropenia; also recorded: acute urticaria"}]}, {"smiles": "CCCc1cc(=O)[nH]c(=S)[nH]1", "note": "[propylthiouracil]", "values": [{"measurement": "adverse reaction that led to discontinuing oral treatment (patient history)", "result": "severe drug-induced liver damage; also recorded: severe neutropenia; also recorded: acute urticaria"}]}]}
